Assay results reported in the supplement of paper PMC10307832.

What was measured:
Experiment in all cases: relative viability (nuclei count vs DMSO), 5 days (fraction); higher = more cells survive
HCC-15 = system: HCC-15
How it was run: (§1)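 Lung cancer cell lines were seeded in 1536-well plates and dosed by pin tool the next day, with either a single drug or a fixed anchor-drug dose combined with five library-drug doses (not always all listed) spaced in √10 steps. Five days later, one step fixed the cells and stained their nuclei (final 0.05% Triton X-100, 1% formaldehyde, 1 ug/ml Hoechst), and nuclei were counted on 4× images. Relative viability is the nuclei count in treated wells divided by the count in vehicle wells, and each value is the median of duplicate plates.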

NCI-H1993 = system: NCI-H1993
How it was run: as §1

NCI-H358 = system: NCI-H358
How it was run: as §1

HARA = system: HARA
How it was run: as §1

NCI-H1793 = system: NCI-H1793
How it was run: as §1

COR-L23 = system: COR-L23
How it was run: as §1

NCI-H2228 = system: NCI-H2228
How it was run: as §1

HCC-78 = system: HCC-78
How it was run: as §1

NCI-H2405 = system: NCI-H2405
How it was run: as §1

SK-LU-1 = system: SK-LU-1
How it was run: as §1

NCI-H2126 = system: NCI-H2126
How it was run: as §1

NCI-H1395 = system: NCI-H1395
How it was run: as §1

LC-2-ad = system: LC-2-ad
How it was run: as §1

ABC-1 = system: ABC-1
How it was run: as §1

NCI-H1944 = system: NCI-H1944
How it was run: as §1

HCC-366 = system: HCC-366
How it was run: as §1

HOP-62 = system: HOP-62
How it was run: as §1

EMC-BAC-2 = system: EMC-BAC-2
How it was run: as §1

NCI-H23 = system: NCI-H23
How it was run: as §1

NCI-H838 = system: NCI-H838
How it was run: as §1

NCI-H2023 = system: NCI-H2023
How it was run: as §1

CCN(CC)CCCCNc1ncc2cc(-c3cc(OC)cc(OC)c3)c(NC(=O)NC(C)(C)C)nc2n1 + Cc1nc(NC(=O)N2CCC[C@H]2C(N)=O)sc1-c1ccnc(C(C)(C)C(F)(F)F)c1 [Alpelisib] (partner 2 µM)
relative viability (HCC-15; first compound 0.01 µM): 1.03
relative viability (HCC-15; first compound 0.03162 µM): 0.885
relative viability (HCC-15; first compound 0.1 µM): 0.947
relative viability (HCC-15; first compound 0.3162 µM): 0.966
relative viability (HCC-15; first compound 1 µM): 0.868
relative viability (NCI-H1993; first compound 0.01 µM): 0.635
relative viability (NCI-H1993; first compound 0.03162 µM): 0.707
relative viability (NCI-H1993; first compound 0.1 µM): 0.691
relative viability (NCI-H1993; first compound 0.3162 µM): 0.677
relative viability (NCI-H1993; first compound 1 µM): 0.672
relative viability (NCI-H358; first compound 0.01 µM): 1.06
relative viability (NCI-H358; first compound 0.03162 µM): 0.901
relative viability (NCI-H358; first compound 0.1 µM): 1.01
relative viability (NCI-H358; first compound 0.3162 µM): 0.848
relative viability (NCI-H358; first compound 1 µM): 0.725
relative viability (HARA; first compound 0.01 µM): 1.06
relative viability (HARA; first compound 0.03162 µM): 0.872
relative viability (HARA; first compound 0.1 µM): 1.03
relative viability (HARA; first compound 0.3162 µM): 0.801
relative viability (HARA; first compound 1 µM): 0.685
relative viability (NCI-H1793; first compound 0.01 µM): 0.748
relative viability (NCI-H1793; first compound 0.1 µM): 0.958
relative viability (NCI-H1793; first compound 0.3162 µM): 0.716
relative viability (NCI-H1793; first compound 1 µM): 0.642
relative viability (COR-L23; first compound 0.01 µM): 0.819
relative viability (COR-L23; first compound 0.03162 µM): 1.02
relative viability (COR-L23; first compound 0.1 µM): 1.19
relative viability (COR-L23; first compound 0.3162 µM): 0.787
relative viability (COR-L23; first compound 1 µM): 0.856
relative viability (NCI-H2228; first compound 0.01 µM): 0.796
relative viability (NCI-H2228; first compound 0.03162 µM): 0.755
relative viability (NCI-H2228; first compound 0.1 µM): 0.913
relative viability (NCI-H2228; first compound 0.3162 µM): 0.672
relative viability (NCI-H2228; first compound 1 µM): 0.469
relative viability (HCC-78; first compound 0.03162 µM): 0.255
relative viability (HCC-78; first compound 0.1 µM): 0.308
relative viability (HCC-78; first compound 0.3162 µM): 0.348
relative viability (HCC-78; first compound 1 µM): 0.303
relative viability (NCI-H2405; first compound 0.01 µM): 0.574
relative viability (NCI-H2405; first compound 0.03162 µM): 0.709
relative viability (NCI-H2405; first compound 0.1 µM): 0.814
relative viability (NCI-H2405; first compound 0.3162 µM): 0.862
relative viability (NCI-H2405; first compound 1 µM): 0.72
relative viability (SK-LU-1; first compound 0.01 µM): 1.06
relative viability (SK-LU-1; first compound 0.03162 µM): 1.08
relative viability (SK-LU-1; first compound 0.1 µM): 1.18
relative viability (SK-LU-1; first compound 0.3162 µM): 1.21
relative viability (SK-LU-1; first compound 1 µM): 0.65
relative viability (NCI-H2126; first compound 0.01 µM): 0.736
relative viability (NCI-H2126; first compound 0.03162 µM): 0.734
relative viability (NCI-H2126; first compound 0.1 µM): 0.742
relative viability (NCI-H2126; first compound 0.3162 µM): 0.815
relative viability (NCI-H2126; first compound 1 µM): 0.75
relative viability (NCI-H1395; first compound 0.03162 µM): 1.19
relative viability (NCI-H1395; first compound 0.1 µM): 1.07
relative viability (NCI-H1395; first compound 0.3162 µM): 0.802
relative viability (NCI-H1395; first compound 1 µM): 0.637
relative viability (LC-2-ad; first compound 0.01 µM): 1.03
relative viability (LC-2-ad; first compound 0.03162 µM): 0.918
relative viability (LC-2-ad; first compound 0.1 µM): 0.942
relative viability (LC-2-ad; first compound 0.3162 µM): 1.07
relative viability (LC-2-ad; first compound 1 µM): 0.865
relative viability (ABC-1; first compound 0.01 µM): 1.2
relative viability (ABC-1; first compound 0.03162 µM): 0.997
relative viability (ABC-1; first compound 0.1 µM): 1.06
relative viability (ABC-1; first compound 0.3162 µM): 1.47
relative viability (ABC-1; first compound 1 µM): 1.13
relative viability (NCI-H1944; first compound 0.01 µM): 0.884
relative viability (NCI-H1944; first compound 0.03162 µM): 0.842
relative viability (NCI-H1944; first compound 0.1 µM): 0.89
relative viability (NCI-H1944; first compound 0.3162 µM): 0.95
relative viability (NCI-H1944; first compound 1 µM): 0.799
relative viability (HCC-366; first compound 0.01 µM): 0.385
relative viability (HCC-366; first compound 0.03162 µM): 0.326
relative viability (HCC-366; first compound 0.1 µM): 0.757
relative viability (HCC-366; first compound 0.3162 µM): 0.584
relative viability (HCC-366; first compound 1 µM): 0.47
relative viability (HOP-62; first compound 0.01 µM): 0.82
relative viability (HOP-62; first compound 0.03162 µM): 1.1
relative viability (HOP-62; first compound 0.1 µM): 0.89
relative viability (HOP-62; first compound 0.3162 µM): 1.04
relative viability (HOP-62; first compound 1 µM): 0.726
relative viability (EMC-BAC-2; first compound 0.01 µM): 0.731
relative viability (EMC-BAC-2; first compound 0.03162 µM): 0.798
relative viability (EMC-BAC-2; first compound 0.1 µM): 0.811
relative viability (EMC-BAC-2; first compound 0.3162 µM): 0.804
relative viability (EMC-BAC-2; first compound 1 µM): 0.688
relative viability (NCI-H23; first compound 0.01 µM): 0.706
relative viability (NCI-H23; first compound 0.03162 µM): 0.735
relative viability (NCI-H23; first compound 0.1 µM): 0.851
relative viability (NCI-H23; first compound 0.3162 µM): 0.653
relative viability (NCI-H23; first compound 1 µM): 0.678
relative viability (NCI-H838; first compound 0.01 µM): 1.11
relative viability (NCI-H838; first compound 0.03162 µM): 0.964
relative viability (NCI-H838; first compound 0.1 µM): 0.996
relative viability (NCI-H838; first compound 0.3162 µM): 1.04
relative viability (NCI-H838; first compound 1 µM): 0.602
relative viability (NCI-H2023; first compound 0.01 µM): 0.685
relative viability (NCI-H2023; first compound 0.03162 µM): 0.608
relative viability (NCI-H2023; first compound 0.1 µM): 0.615
relative viability (NCI-H2023; first compound 0.3162 µM): 0.676
relative viability (NCI-H2023; first compound 1 µM): 0.529
